Source: patent US20220338759A1, “DEVICE FOR CALCULATING, DURING ONE STEP OR EACH SUCCESSIVE STEP OF THE GAIT OF A SUBJECT, THE PUSH-OFF P0 OF THE SUBJECT” (Centre National De La Recherche Scientifique, priority 2019, published 2022)
“And” between values parts separate entries of the source, which are not always exact repeats. Equal entries are not always repeated.

Key:
[1] = test system: patients with progressive MS (pMS); assay: Prospective observational 12-month study of pMS patients with newly introduced MD1003 (pMS-b cohort): T25FW, Po and falls at M0 and M6; assay type: in vivo, human; details: for mean change in Po / mean change in TW25F: M6 vs M0
Description: We perform a prospective observational study to evaluate a measure of a surrogate of ankle push-off moment power (Po) as a biomarker of evolution in pMS patients with stable treatment and pMS patients with newly introduced MD1003 (high-dose biotin). Po is measured during a 10m-walk with U-turn and back, using an IMU attached to each foot. The objective is to assess whether the dynamic measure of Po at 6-month interval reflects the response to treatment (assessed using the change in the timed 25-foot walk or the Expanded Disease Status Scale) and the change in fall risk within 6 months.
Second, the inventors aim at measuring how this variation in Po impact evolution of fall risk in this group of pMS patients. […] The T25FW, Po and risk of falls was assessed every 6 months using a simple validated protocol and the evolution of Po and the risk of falls were compared for each individual according to their response to treatment.
Patients—Thirty-three patients with progressive MS (pMS) and 20 gender and age-matched healthy subjects (HS) were enrolled in this longitudinal prospective study (table 1). pMS were recruited consecutively from the outpatient clinic of Percy Hospital (Clamart, France) between December 2017 and April 2018. The inclusion criteria for participation in the pMS cohorts required participants to be at least 18 years old, be diagnosed with primary progressive or secondary progressive multiple sclerosis according to the 2010 International Panel criteria, be capable of walking 20 m with U-turn, be free of any other conditions that affect gait. The exclusion criteria was pregnancy and high-dose biotin intake before M0. From the pMS cohort, the inventors isolated a subgroup, named pMS-b cohort, built with patients who were treated with high-dose biotin (MD1003 100 mg, three times a day) for at least one year after inclusion. For participating in the pMS-b cohort, additional inclusion criteria were those of the cohort Temporary Use Authorisation (TUAc) of MD1003—they had to have been free of any relapse for at least one year and sign the consent to enter the TUA cohort. The other patients were included in a group named pMS-nb. Exclusion criteria from this pMS-nb cohort were the presence of drug intake modification for the six-months prior to inclusions or during the twelve-month follow-up. HS participants were recruited from the hospital and research unit staff between December 2017 and April 2018. The inclusion criteria for participation in the HS cohort included: no report of falls in the past 5 years before inclusion, no disease that could affect their walk. Seventeen patients were included in the pMS-b cohort and 16 in the pMS-nb cohort. All participants gave their written consent to participate in the study. The study protocol was conducted according to the Helsinki principles and approved by Ethic Comity “Protection des Personnes Nord Ouest III” under the ID RCB: 2017-A01538-45.
Measures—Gait was measured using four 3-dimensional accelerometers (Mtw XSens®, 100 Hz sampling frequency) positioned on the head, lower back (L4-L5 vertebrae) and dorsal part of both feet. Participants performed two walks of 20 m with U-turn (10 m way in and 10 m way out). One trial per visit only was used in this study, as the second trial was done with specific conditions for the sake of a reproducibility test in a previous study. A limit at 7.62 m was drawn for the assessor to timeclock the T25FW during the first way-in. Disease severity was assessed using patient-reported outcomes (the Multiple Sclerosis Walking Scale-12—MSWS—and the Fatigue Impact Scale—FIS) together with clinical evaluation (Expanded Disease Severity Scale [10]-EDSS—and Computerized Speed Cognitive Test [11]—CSCT) and the 25-foot walking test administered according to a validated standardized protocol. […]

[2] = test system: progressive multiple sclerosis; details: cited from earlier work
[3] = pMS-b (n = 17), T25FW at M6 vs M0

O=C(O)CCCC[C@@H]1SC[C@@H]2NC(=O)N[C@@H]21 [MD1003, biotin]
response to treatment as defined by a 20% decrease in TW25F ([1]; our cohort (pMS-b)): 13% | complete responder (≥20% decrease), number of patients ([1]; pMS-b (n = 17), MD1003 100 mg three times a day, T25FW at M6 vs M0): 3/17 and 3 | complete progressor (≥20% increase), number of patients [1, 3]: 5 | complete progressor (≥20% increase), percent of patients [1, 3]: (29%) | non responder (−10-10% decrease), number of patients [1, 3]: 5 | non responder (−10-10% decrease), percent of patients [1, 3]: (29%) | partial progressor (10-20% increase), number of patients [1, 3]: 2 | partial progressor (10-20% increase), percent of patients [1, 3]: (12%) | partial responder (10-20% decrease), number of patients [1, 3]: 2 | partial responder (10-20% decrease), percent of patients [1, 3]: (12%) | participants who decreased their number of falls among the three with Po decreased by more than 20% ([1]; pMS-b cohort): Two | significant change of Po after beginning of MD1003 ([1]; pMS-b cohort): nearly half the cohort | responders (response to treatment by change in timed 25-foot walk or EDSS) ([1]; pMS-b cohort, summary of results, M0 to M6): 2/17 | participants who decreased their Po by more than 20% ([1]; pMS-b cohort, M0 to M6): Three | mean change in Po ([1]; pMS-b complete progressors): −0.36 | mean change in TW25F ([1]; pMS-b complete progressors): 1.39 | mean change in Po ([1]; pMS-b complete responders): 0.33 | mean change in TW25F ([1]; pMS-b complete responders): −0.26 | number of falls in the following 6 months in the 4 patients with significant increase (higher than 20%) in Po ([1]; pMS-b group): equal or lower number of falls | patients showing an increase in Po of more than 20% ([1]; pMS-b group, 17 patients, M0 to M6): 4 | patients who increased their Po ([1]; pMS-b group, out of the 17 patients, M0 to M6): 8 | patients who did not fall during the first 6-month period and began falling during the second 6-month period ([1]; pMS-b group, M0-M6 vs M6-M12): 3 | patients who fell during the first 6-month period and stopped falling during the second 6-month period ([1]; pMS-b group, M0-M6 vs M6-M12): 1 | mean change in Po ([1]; pMS-b non responders): −0.02 | mean change in TW25F ([1]; pMS-b non responders): 0.00 | mean change in Po ([1]; pMS-b partial progressors): 0.05 | mean change in TW25F ([1]; pMS-b partial progressors): 0.17 | mean change in Po ([1]; pMS-b partial responders): 0.14 | mean change in TW25F ([1]; pMS-b partial responders): −0.17 | effect on locomotion ([1]; small sample of pMS patients): improved the locomotion in a subset pMS patients | response to treatment as defined by a 20% decrease in TW25F ([2]; cohort of the phase 3 clinical trial [14]): 8.7% | patients in whom the T25FW time decreased by 20% ([2]; recently demonstrated efficacy of MD1003): 10%
